One may read the Ki as a measure of affinity in units of concentration, obtained from inhibition or displacement.

The structures appear in SMILES notation.

The values below come from patent publication US20230159532A1, “PARATHYROID HORMONE (PTH) RECEPTOR ANTAGONISTS AND USES THEREOF” (Crinetics Pharmaceuticals, Inc., priority 2021, published 2023).

This assay deals with T1, human PTHR1 receptor (Homo sapiens, UniProt Q03431).
T1 construct: purchased Eurofins HTS030M
T1 sequence (Q03431 27-593): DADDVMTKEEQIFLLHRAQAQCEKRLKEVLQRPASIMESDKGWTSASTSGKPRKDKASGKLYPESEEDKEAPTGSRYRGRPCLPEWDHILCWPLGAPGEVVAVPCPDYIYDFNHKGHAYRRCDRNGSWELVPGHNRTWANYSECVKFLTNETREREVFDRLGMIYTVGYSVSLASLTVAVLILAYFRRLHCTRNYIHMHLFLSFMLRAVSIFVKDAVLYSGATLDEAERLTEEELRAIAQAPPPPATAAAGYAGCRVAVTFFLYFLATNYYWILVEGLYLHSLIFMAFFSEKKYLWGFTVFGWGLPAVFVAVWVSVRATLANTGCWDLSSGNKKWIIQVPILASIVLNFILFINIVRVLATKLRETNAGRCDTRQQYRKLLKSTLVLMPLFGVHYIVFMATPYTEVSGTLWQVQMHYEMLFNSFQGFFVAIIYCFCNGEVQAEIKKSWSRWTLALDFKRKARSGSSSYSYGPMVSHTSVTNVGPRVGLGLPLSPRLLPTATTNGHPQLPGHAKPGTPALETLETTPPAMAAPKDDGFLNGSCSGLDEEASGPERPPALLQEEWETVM
The experiment in a line: Competitive antagonist binding assay for hPTH-R1 (radioactive competition binding, SPA beads). The following applies: human PTHR1 membranes, [125I]-[Nle8,18,Tyr34]-PTH(1-34) 0.2 nM, 90 minutes at room temperature; read-out: hPTHR1 Ki. The method, boiled down: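 Displacement of 0.2 nM radioiodinated [Nle8,18,Tyr34]-PTH(1-34) from membrane-bound human PTHR1 measured by scintillation proximity after 90 min at room temperature. Compounds typically 0-10,000 nM final, pH 7.4 HEPES/Mg/Ca buffer with BSA and detergent. Ki calculated from competition data.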
As for `CCN1C(=O)N(c2c(F)cc(NCCN[C@@H](CO)C(=O)O)cc2F)c2cc(C#N)ccc2-c2cc(Cl)cnc21` [1-210, (2S)-2-({2-[(4-{4-chloro-13-cyano-8-ethyl-9-oxo-6,8,10-triazatricyclo[9.4.0.0^2,7]pentadeca-1(11),2(7),3,5,12,14-hexaen-10-yl}-3,5-difluorophenyl)amino]ethyl}amino)-3-hydroxypropanoic acid], the Ki was below 100 nM.
For `CC(C)N1C(=O)N(c2c(F)cc(N3CC[C@@H](N)C3)cc2F)c2cc(C#N)cc(F)c2-c2cc(F)cnc21` [1-212, 10-{4-[(3R)-3-aminopyrrolidin-1-yl]-2,6-difluorophenyl}-4,15-difluoro-9-oxo-8-(propan-2-yl)-6,8,10-triazatricyclo[9.4.0.0^2,7]pentadeca-1(15),2(7),3,5,11,13-hexaene-13-carbonitrile] the value was below 100 nM; for `CCN1C(=O)N(c2c(F)cc(NCCN[C@@H](C)CO)cc2F)c2cc(C#N)ccc2-c2cc(F)cnc21` [1-213, 10-{2,6-difluoro-4-[(2-{[(2S)-1-hydroxypropan-2-yl]amino}ethyl)amino]phenyl}-8-ethyl-4-fluoro-9-oxo-6,8,10-triazatricyclo[9.4.0.0^2,7]pentadeca-1(11),2(7),3,5,12,14-hexaene-13-carbonitrile], below 100 nM.
For `CCN1C(=O)N(c2c(F)cc(NCCN[C@H](C)CO)cc2F)c2cc(C#N)ccc2-c2cc(F)cnc21` [1-214, 10-{2,6-difluoro-4-[(2-{[(2R)-1-hydroxypropan-2-yl]amino}ethyl)amino]phenyl}-8-ethyl-4-fluoro-9-oxo-6,8,10-triazatricyclo[9.4.0.0^2,7]pentadeca-1(11),2(7),3,5,12,14-hexaene-13-carbonitrile] the value was below 100 nM; for `CCN1C(=O)N(c2c(F)cc(NCCNCC(=O)O)cc2F)c2cc(C#N)ccc2-c2cc(Cl)cnc21` [1-215, 2-({2-[(4-{4-chloro-13-cyano-8-ethyl-9-oxo-6,8,10-triazatricyclo[9.4.0.0^2,7]pentadeca-1(11),2(7),3,5,12,14-hexaen-10-yl}-3,5-difluorophenyl)amino]ethyl}amino)acetic acid], below 100 nM; for `CCN1C(=O)N(c2c(F)cc(NCCNCCNC(=O)OC)cc2F)c2cc(C#N)ccc2-c2cc(F)cnc21` [1-216, methyl N-[2-({2-[(4-{13-cyano-8-ethyl-4-fluoro-9-oxo-6,8,10-triazatricyclo[9.4.0.0^2,7]pentadeca-1(11),2(7),3,5,12,14-hexaen-10-yl}-3,5-difluorophenyl)amino]ethyl}amino)ethyl]carbamate], below 100 nM.
For `CCN1C(=O)N(c2c(F)cc(NCCN[C@@H]3CC[C@H]3O)cc2F)c2cc(C#N)ccc2-c2cc(F)cnc21` [1-218, 10-{2,6-difluoro-4-[(2-{[(1R,2R)-2-hydroxycyclobutyl]amino}ethyl)amino]phenyl}-8-ethyl-4-fluoro-9-oxo-6,8,10-triazatricyclo[9.4.0.0^2,7]pentadeca-1(11),2(7),3,5,12,14-hexaene-13-carbonitrile] the value was below 100 nM; for `CCN1C(=O)N(c2c(F)cc(NCCN[C@@H](C)C(=O)O)cc2F)c2cc(C#N)ccc2-c2cc(Cl)cnc21` [1-219, (2S)-2-({2-[(4-{4-chloro-13-cyano-8-ethyl-9-oxo-6,8,10-triazatricyclo[9.4.0.0^2,7]pentadeca-1(11),2(7),3,5,12,14-hexaen-10-yl}-3,5-difluorophenyl)amino]ethyl}amino)propanoic acid], below 100 nM; for `CCN1C(=O)N(c2c(F)cc(NCCN[C@H](CO)C(=O)O)cc2F)c2cc(C#N)ccc2-c2cc(Cl)cnc21` [1-220, (2R)-2-({2-[(4-{4-chloro-13-cyano-8-ethyl-9-oxo-6,8,10-triazatricyclo[9.4.0.0^2,7]pentadeca-1(11),2(7),3,5,12,14-hexaen-10-yl}-3,5-difluorophenyl)amino]ethyl}amino)-3-hydroxypropanoic acid], below 100 nM.
In the case of `CCN1C(=O)N(c2c(F)cc(NCCNCCCS(=O)(=O)O)cc2F)c2cc(C#N)ccc2-c2cc(F)cnc21` [1-221, 3-({2-[(4-{13-cyano-8-ethyl-4-fluoro-9-oxo-6,8,10-triazatricyclo[9.4.0.0^2,7]pentadeca-1(11),2(7),3,5,12,14-hexaen-10-yl}-3,5-difluorophenyl)amino]ethyl}amino)propane-1-sulfonic acid], the inhibition constant Ki is below 100 nM.
For `CCN1C(=O)N(c2c(F)cc(NCCN[C@H]3C[C@H](O)C3)cc2F)c2cc(C#N)ccc2-c2cc(F)cnc21` [1-222, 10-{2,6-difluoro-4-[(2-{[(1r,3r)-3-hydroxycyclobutyl]amino}ethyl)amino]phenyl}-8-ethyl-4-fluoro-9-oxo-6,8,10-triazatricyclo[9.4.0.0^2,7]pentadeca-1(11),2(7),3,5,12,14-hexaene-13-carbonitrile], the Ki is below 100 nM.
For `CN1C(=O)N(c2c(F)cc(NCCN)cc2F)c2cc(C#N)ccc2-c2cc(Cl)cnc21` [1-223, 10-{4-[(2-aminoethyl)amino]-2,6-difluorophenyl}-4-chloro-8-methyl-9-oxo-6,8,10-triazatricyclo[9.4.0.0^2,7]pentadeca-1(11),2(7),3,5,12,14-hexaene-13-carbonitrile] the value was below 100 nM.
For `CCN1C(=O)N(c2c(F)cc(NCCN[C@H]3C[C@H](O)C3)cc2F)c2cc(C#N)ccc2-c2cc(C(F)(F)F)cnc21` [1-224, 10-{2,6-difluoro-4-[(2-{[(1r,3r)-3-hydroxycyclobutyl]amino}ethyl)amino]phenyl}-8-ethyl-9-oxo-4-(trifluoromethyl)-6,8,10-triazatricyclo[9.4.0.0^2,7]pentadeca-1(11),2(7),3,5,12,14-hexaene-13-carbonitrile] the value was below 100 nM; for `CCN1C(=O)N(c2c(F)cc(NCCNCC(N)CO)cc2F)c2cc(C#N)ccc2-c2cc(Cl)cnc21` (centres unmarked) [1-225, 10-[4-({2-[(2-amino-3-hydroxypropyl)amino]ethyl}amino)-2,6-difluorophenyl]-4-chloro-8-ethyl-9-oxo-6,8,10-triazatricyclo[9.4.0.0^2,7]pentadeca-1(11),2(7),3,5,12,14-hexaene-13-carbonitrile], below 100 nM; for `CCN1C(=O)N(c2c(F)cc(NCCNCCO)cc2F)c2cc(C)ccc2-c2cc(F)cnc21` [1-226, 10-[2,6-difluoro-4-({2-[(2-hydroxyethyl)amino]ethyl}amino)phenyl]-8-ethyl-4-fluoro-13-methyl-6,8,10-triazatricyclo[9.4.0.0^2,7]pentadeca-1(11),2(7),3,5,12,14-hexaen-9-one], below 100 nM.
The figure for `CCN1C(=O)N(c2c(F)cc(NCCNCC(=O)O)cc2F)c2cc(C#N)ccc2-c2cc(C(F)(F)F)cnc21` [1-227, 2-{[2-({4-[13-cyano-8-ethyl-9-oxo-4-(trifluoromethyl)-6,8,10-triazatricyclo[9.4.0.0^2,7]pentadeca-1(11),2(7),3,5,12,14-hexaen-10-yl]-3,5-difluorophenyl}amino)ethyl]amino}acetic acid] is below 100 nM.
`CCN1C(=O)N(c2c(F)cc(NCCNCCN3CCNC3=O)cc2F)c2cc(C#N)ccc2-c2cc(Cl)cnc21` [1-228, 4-chloro-10-{2,6-difluoro-4-[(2-{[2-(2-oxoimidazolidin-1-yl)ethyl]amino}ethyl)amino]phenyl}-8-ethyl-9-oxo-6,8,10-triazatricyclo[9.4.0.0^2,7]pentadeca-1(11),2(7),3,5,12,14-hexaene-13-carbonitrile]: the Ki was below 100 nM.
For `CCN1C(=O)N(c2c(F)cc(NCCNCCOCCC(=O)O)cc2F)c2cc(C#N)ccc2-c2cc(Cl)cnc21` [1-229, 3-[2-({2-[(4-{4-chloro-13-cyano-8-ethyl-9-oxo-6,8,10-triazatricyclo[9.4.0.0^2,7]pentadeca-1(11),2(7),3,5,12,14-hexaen-10-yl}-3,5-difluorophenyl)amino]ethyl}amino)ethoxy]propanoic acid] the value was below 100 nM.
For the compound `CCN1C(=O)N(c2c(F)cc(NCCNC[C@H](O)c3ccccc3)cc2F)c2cc(C#N)ccc2-c2cc(Cl)cnc21` [1-230, 4-chloro-10-{2,6-difluoro-4-[(2-{[(2R)-2-hydroxy-2-phenylethyl]amino}ethyl)amino]phenyl}-8-ethyl-9-oxo-6,8,10-triazatricyclo[9.4.0.0^2,7]pentadeca-1(11),2(7),3,5,12,14-hexaene-13-carbonitrile], the Ki was below 100 nM.
`CCN1C(=O)N(c2c(F)cc(NCCN3CC[C@@H](O)C3)cc2F)c2cc(C#N)ccc2-c2cc(Cl)cnc21` [1-231, 4-chloro-10-[2,6-difluoro-4-({2-[(3R)-3-hydroxypyrrolidin-1-yl]ethyl}amino)phenyl]-8-ethyl-9-oxo-6,8,10-triazatricyclo[9.4.0.0^2,7]pentadeca-1(11),2(7),3,5,12,14-hexaene-13-carbonitrile]: the Ki was below 100 nM.
